Assays:
Assay type in all cases: functional
Conditions in all cases: Homo sapiens
[1] = Antiproliferative activity against VEGF-stimulated HUVEC cells assessed as reduction in cell viability at 10 nM preincubated for 1 hr followed by addition of VEGF measured after 72 hrs by MTT assay
[2] = Antiproliferative activity against VEGF-stimulated HUVEC cells assessed as reduction in cell viability at 0.5 nM preincubated for 1 hr followed by addition of VEGF measured after 72 hrs by MTT assay
[3] = Antiproliferative activity against VEGF-stimulated HUVEC cells assessed as reduction in cell viability at 2 nM preincubated for 1 hr followed by addition of VEGF measured after 72 hrs by MTT assay

Structure (SMILES) | inhibition at 0.01 µM [1] [%] | inhibition at 0.0005 µM [2] [%] | inhibition at 0.002 µM [3] [%]
O=C(c1cccc(NC(=O)c2cccc3cc[nH]c23)c1)c1ccc2c(/C=C/c3ccccc3)n[nH]c2c1 | 58 |  | 
C/C(=C\C(=O)Nc1cccc(C(=O)c2ccc3c(/C=C/c4ccccc4)n[nH]c3c2)c1)c1ccccc1C | 99 |  | 
CC(=O)NC(C)(C)CC(=O)Nc1cccc(C(=O)c2ccc3c(/C=C/c4ccccc4)n[nH]c3c2)c1 | 35 |  | 
CC(C)=CC1C(C(=O)Nc2cccc(Oc3ccc4c(/C=C/c5ccccc5)n[nH]c4c3)c2)C1(C)C (centres undefined) | 24 |  | 
Cc1ccc(CCC(=O)Nc2cccc(Oc3ccc4c(/C=C/c5ccccc5)n[nH]c4c3)c2)cc1 | 70 |  | 
O=C(CCN1CCCCC1)Nc1cccc(C(=O)c2ccc3c(/C=C/c4ccccc4)n[nH]c3c2)c1 | 2 |  | 
CC(=O)N1CCC[C@@H]1C(=O)Nc1cccc(Nc2ccc3c(/C=C/c4ccccc4)n[nH]c3c2)c1 | -5 |  | 
O=C(Cc1cccnc1)Nc1cccc(C(=O)c2ccc3c(/C=C/c4ccccc4)n[nH]c3c2)c1 | 21 |  | 
CC(C)c1ccccc1C(=O)Nc1cccc(C(=O)c2ccc3c(/C=C/c4ccccc4)n[nH]c3c2)c1 | 51 |  | 
O=C1CCC(C(=O)Nc2cccc(Oc3ccc4c(/C=C/c5ccccc5)n[nH]c4c3)c2)CC1 | 59 |  | 
O=C(c1cccc(NC(=O)C2CC3C=CCC(C3)C2)c1)c1ccc2c(/C=C/c3ccccc3)n[nH]c2c1 (centres undefined) | 56 |  | 
O=C(CCC(=O)N1CCCC1)Nc1cccc(Nc2ccc3c(/C=C/c4ccccc4)n[nH]c3c2)c1 | -8 |  | 
O=C1CC[C@H](C(=O)Nc2cccc(C(=O)c3ccc4c(/C=C/c5ccccc5)n[nH]c4c3)c2)N1 | 32 |  | 
O=C(CC1CC2CCC1C2)Nc1cccc(Nc2ccc3c(/C=C/c4ccccc4)n[nH]c3c2)c1 (centres undefined) | 87 |  | 
O=C1NCC(C(=O)Nc2cccc(C(=O)c3ccc4c(/C=C/c5ccccc5)n[nH]c4c3)c2)N1 (centres undefined) | 21 |  | 
O=C(Nc1cccc(Oc2ccc3c(/C=C/c4ccccc4)n[nH]c3c2)c1)C1CC2CC(O)C1C2 (centres undefined) | 38 |  | 
O=C1NCC(C(=O)Nc2cccc(Nc3ccc4c(/C=C/c5ccccc5)n[nH]c4c3)c2)N1 (centres undefined) | 7 |  | 
Cc1cc(C(=O)Nc2cccc(Nc3ccc4c(/C=C/c5ccccc5)n[nH]c4c3)c2)nn1C | 95 |  | 
O=C(c1cccc(NC(=O)C2CCOC2)c1)c1ccc2c(/C=C/c3ccccc3)n[nH]c2c1 (centres undefined) | 12 |  | 
Cc1cc(C(=O)Nc2cccc(C(=O)c3ccc4c(/C=C/c5ccccc5)n[nH]c4c3)c2)oc(=O)c1 | 64 |  | 
O=C(c1cccc(NC(=O)[C@H]2CCC[C@H]2O)c1)c1ccc2c(/C=C/c3ccccc3)n[nH]c2c1 | 39 |  | 
O=C(/C=C/C1C[C@H]2C=C[C@H]1C2)Nc1cccc(Nc2ccc3c(/C=C/c4ccccc4)n[nH]c3c2)c1 (some centres undefined) | 30 |  | 
CCNc1ccccc1C(=O)Nc1cccc(Nc2ccc3c(/C=C/c4ccccc4)n[nH]c3c2)c1 | 71 |  | 
CN1CSCCC1C(=O)Nc1cccc(C(=O)c2ccc3c(/C=C/c4ccccc4)n[nH]c3c2)c1 (centres undefined) | 8 |  | 
O=C(Cc1c(F)cccc1F)Nc1cccc(C(=O)c2ccc3c(/C=C/c4ccccc4)n[nH]c3c2)c1 | 81 |  | 

Structure (SMILES) | inhibition at 0.01 µM [1] [%] | inhibition at 0.0005 µM [2] [%] | inhibition at 0.002 µM [3] [%]
CC(C)(C)[C@@H](O)C(=O)Nc1cccc(C(=O)c2ccc3c(/C=C/c4ccccc4)n[nH]c3c2)c1 | 27 |  | 
Cc1nc(S)sc1CC(=O)Nc1cccc(C(=O)c2ccc3c(/C=C/c4ccccc4)n[nH]c3c2)c1 | 24 |  | 
O=C(Nc1cccc(C(=O)c2ccc3c(/C=C/c4ccccc4)n[nH]c3c2)c1)C(=O)C1=CCCCC1 | 45 |  | 
O=C(c1cccc(NC(=O)C2CCCO2)c1)c1ccc2c(/C=C/c3ccccc3)n[nH]c2c1 (centres undefined) | 18 |  | 
Cn1cnc(CC(=O)Nc2cccc(Oc3ccc4c(/C=C/c5ccccc5)n[nH]c4c3)c2)c1 | 20 |  | 
C[C@@H](CC(=O)Nc1cccc(C(=O)c2ccc3c(/C=C/c4ccccc4)n[nH]c3c2)c1)c1ccccc1 | 52 |  | 
O=C(/C=C/C(=O)Nc1cccc(C(=O)c2ccc3c(/C=C/c4ccccc4)n[nH]c3c2)c1)NCC1CC1 | 3 |  | 
CCNc1ccccc1C(=O)Nc1cccc(Oc2ccc3c(/C=C/c4ccccc4)n[nH]c3c2)c1 | 85 |  | 
O=C(Nc1cccc(Oc2ccc3c(/C=C/c4ccccc4)n[nH]c3c2)c1)C1C[C@H]2C=C[C@H]1C2 (some centres undefined) | 82 |  | 
Cc1nc(S)sc1CC(=O)Nc1cccc(Oc2ccc3c(/C=C/c4ccccc4)n[nH]c3c2)c1 | 45 |  | 
CC(=O)NC(C)(C)CC(=O)Nc1cccc(Oc2ccc3c(/C=C/c4ccccc4)n[nH]c3c2)c1 | 42 |  | 
COc1cccc(CC(=O)Nc2cccc(Nc3ccc4c(/C=C/c5ccccc5)n[nH]c4c3)c2)c1 | 34 |  | 
CC1(C)OC(=O)CC1C(=O)Nc1cccc(Nc2ccc3c(/C=C/c4ccccc4)n[nH]c3c2)c1 (centres undefined) | 16 |  | 
O=C(Nc1cccc(Oc2ccc3c(/C=C/c4ccccc4)n[nH]c3c2)c1)c1cccc2cc[nH]c12 | 68 |  | 
O=C(Nc1cccc(Nc2ccc3c(/C=C/c4ccccc4)n[nH]c3c2)c1)C(=O)C1=CCCCC1 | 23 |  | 
O=C(Cc1ccccc1)C(=O)Nc1cccc(C(=O)c2ccc3c(/C=C/c4ccccc4)n[nH]c3c2)c1 | -37 |  | 
COc1ccc(C#N)c(C(=O)Nc2cccc(Oc3ccc4c(/C=C/c5ccccc5)n[nH]c4c3)c2)c1 | 18 |  | 
COc1ccccc1/C=C/C(=O)Nc1cccc(Oc2ccc3c(/C=C/c4ccccc4)n[nH]c3c2)c1 | 17 |  | 
Cc1ccc(CCC(=O)Nc2cccc(C(=O)c3ccc4c(/C=C/c5ccccc5)n[nH]c4c3)c2)cc1 | 57 |  | 
CC(=O)N1CCC(C(=O)Nc2cccc(Oc3ccc4c(/C=C/c5ccccc5)n[nH]c4c3)c2)CC1 | 42 |  | 
CN(C)CCCC(=O)Nc1cccc(C(=O)c2ccc3c(/C=C/c4ccccc4)n[nH]c3c2)c1 | 24 |  | 
CC(C)C(=O)Nc1cccc(Nc2ccc3c(/C=C/c4ccccc4)n[nH]c3c2)c1 | 24 |  | 
CN(C)C(=S)SCC(=O)Nc1cccc(Oc2ccc3c(/C=C/c4ccccc4)n[nH]c3c2)c1 | 70 |  | 
CC1(C)OC(=O)[C@H](CC(=O)Nc2cccc(Nc3ccc4c(/C=C/c5ccccc5)n[nH]c4c3)c2)O1 | 20 |  | 
CS(=O)(=O)NNC(=O)c1ccccc1Nc1ccc2c(/C=C/c3ccccn3)n[nH]c2c1 |  | 9 | 1

Structure (SMILES) | inhibition at 0.01 µM [1] [%] | inhibition at 0.0005 µM [2] [%] | inhibition at 0.002 µM [3] [%]
O=C(NCCCn1ccnc1)c1ccccc1Nc1ccc2c(/C=C/c3ccccn3)n[nH]c2c1 |  | 23 | 23
CC1CC(NC(=O)c2ccccc2Nc2ccc3c(/C=C/c4ccccn4)n[nH]c3c2)CC(C)(C)C1 (centres undefined) |  | 25 | 31
COCCNC(=O)c1ccccc1Nc1ccc2c(/C=C/c3ccccn3)n[nH]c2c1 |  | 21 | 60
COC(CNC(=O)c1ccccc1Nc1ccc2c(/C=C/c3ccccn3)n[nH]c2c1)OC |  | 47 | 89
CCN(CC)CCCNC(=O)c1ccccc1Nc1ccc2c(/C=C/c3ccccn3)n[nH]c2c1 |  | 31 | -1
O=C(NCCCCO)c1ccccc1Nc1ccc2c(/C=C/c3ccccn3)n[nH]c2c1 |  | 35 | 40
O=C(NC1CCS(=O)(=O)C1)c1ccccc1Nc1ccc2c(/C=C/c3ccccn3)n[nH]c2c1 (centres undefined) |  | 27 | 2
N#CCCNNC(=O)c1ccccc1Nc1ccc2c(/C=C/c3ccccn3)n[nH]c2c1 |  | 44 | 5
NC(=O)CCNC(=O)c1ccccc1Nc1ccc2c(/C=C/c3ccccn3)n[nH]c2c1 |  | 8 | 18
CC(C)OCCCNC(=O)c1ccccc1Nc1ccc2c(/C=C/c3ccccn3)n[nH]c2c1 |  | 34 | 99
O=C(NNC(=O)c1ccccc1Nc1ccc2c(/C=C/c3ccccn3)n[nH]c2c1)c1ccc[nH]1 |  | 60 | 99
CN(C)CCCCNC(=O)c1ccccc1Nc1ccc2c(/C=C/c3ccccn3)n[nH]c2c1 |  | 23 | 16
CC(C)N(CCNC(=O)c1ccccc1Nc1ccc2c(/C=C/c3ccccn3)n[nH]c2c1)C(C)C |  | 37 | 15
NC(=O)c1ccccc1Nc1ccc2c(/C=C/c3ccccn3)n[nH]c2c1 |  | 9 | 30
O=C(Nc1ccon1)c1ccccc1Nc1ccc2c(/C=C/c3ccccn3)n[nH]c2c1 |  | 6 | 16
N#CCNC(=O)c1ccccc1Nc1ccc2c(/C=C/c3ccccn3)n[nH]c2c1 |  | 18 | 40
CCCCC(=O)NNC(=O)c1ccccc1Nc1ccc2c(/C=C/c3ccccn3)n[nH]c2c1 |  | 40 | 94
O=C(NO)c1ccccc1Nc1ccc2c(/C=C/c3ccccn3)n[nH]c2c1 |  | 7 | 25
CN(CCCNC(=O)c1ccccc1Nc1ccc2c(/C=C/c3ccccn3)n[nH]c2c1)c1ccccc1 |  | 18 | 25
O=C(NN1CCCCC1)c1ccccc1Nc1ccc2c(/C=C/c3ccccn3)n[nH]c2c1 |  | 27 | 17
CCCC(CCC)NC(=O)c1ccccc1Nc1ccc2c(/C=C/c3ccccn3)n[nH]c2c1 |  | 1 | 52
O=C(NCC1CCCO1)c1ccccc1Nc1ccc2c(/C=C/c3ccccn3)n[nH]c2c1 (centres undefined) |  | 23 | 44
O=C(NNc1ccccn1)c1ccccc1Nc1ccc2c(/C=C/c3ccccn3)n[nH]c2c1 |  | 19 to 32 | 35 to 92
CC(C)c1ccc(CNC(=O)c2ccccc2Nc2ccc3c(/C=C/c4ccccn4)n[nH]c3c2)cc1 |  | 23 | 51

From ChEMBL document CHEMBL3880421, “Indazole compounds and pharmaceutical compositions for inhibiting protein kinases, and methods for their use” (2003)
